Laboratory results published in patent US20210010053A1, “ASSAYS FOR IMPROVING AUTOMATED ANTIMICROBIAL SUSCEPTIBILITY TESTING ACCURACY” (SELUX DIAGNOSTICS, INC., priority 2019, published 2021).

What was measured:
[1] = tested on: E cloacae (IMP); settings: 0.01 mM EDTA added to Solution 4, vacuum dried, 3 hours of incubation
Description: (§1) Example 9. […] Multiple different bacterial strains listed in Table 7 were inoculated into each of 3 wells.

[2] = tested on: E cloacae (NDM); settings: 0.01 mM EDTA added to Solution 4, vacuum dried, 3 hours of incubation
Description: as §1

[3] = tested on: E coli 25922; settings: E coli 25922, no carbapenemase; 0.01 mM EDTA added to Solution 4, vacuum dried; 3 hours of incubation
Description: as §1

[4] = tested on: K pneumoniae (KPC); settings: 0.01 mM EDTA added to Solution 4, vacuum dried, 3 hours of incubation
Description: as §1

[5] = tested on: K pneumoniae (NDM); settings: 0.01 mM EDTA added to Solution 4, vacuum dried, 3 hours of incubation
Description: as §1

[6] = tested on: M morganii (KPC); settings: 0.01 mM EDTA added to Solution 4, vacuum dried, 3 hours of incubation
Description: as §1

[7] = tested on: M morganii (NDM); settings: 0.01 mM EDTA added to Solution 4, vacuum dried, 3 hours of incubation
Description: as §1

[8] = tested on: beta lactamase; assay: beta-lactamase inhibitor assay with nitrocefin probe; format: cell-based; settings: 4μg/mL inhibitor, 0.25 mg/mL nitrocefin, 35° C., 4 hours, absorbance 490 nm, FIG. 1
Method: Example 1. Microbes were prepared by diluting colonies into saline to reach a McFarland value of 0.5, which was verified using a spectrophotometer. This was diluted 1:20 into saline and 50 μI of inoculum was added to wells of a 384-well plate. For each strain, 25 μI of solutions containing either 0.25 mg/mL nitrocefin alone (Nitro), 0.25 mg/mL nitrocefin and 4μg/mL clauvulanate (Nitro Clay), or 0.25 mg/mL nitrocefin and 4μg/mL tazobactam (Nitro Tazo) were added to duplicate wells. Inoculated plates were incubated at 35° C., shaking at 150 rpm for 4 hours. Absorbance was read at 490 nm and values shown in FIG. 1 are the absorbance in the indicated condition minus the absorbance from microbial inoculum alone without nitrocefin. A greater value indicates microbial ability to degrade nitrocefin, and thus, the presence of a beta lactamase. A reduction in absorbance value in the presence of an inhibitor indicates the beta lactamase present is sensitive to the inhibitor. […] Further, the inhibitors are both active against each of the strains with known beta lactamases.

SMILES | Carba Test with EDTA [1] | Carba Test with EDTA [2] | Carba Test with EDTA [3] | Carba Test with EDTA [4] | Carba Test with EDTA [5] | Carba Test with EDTA [6] | Carba Test with EDTA [7] | activity of inhibitor against strains with known beta lactamases (reduction in nitrocefin absorbance) [8]
O=C(O)CN(CCN(CC(=O)O)CC(=O)O)CC(=O)O [EDTA, Ethylenediaminetetraacetic acid] | −1816.5 | −2084.5 | −1541.5 | 3705.5 | −2222.5 | 1288.5 | −1923.5 | 
O=C(O)[C@H]1/C(=C/CO)O[C@@H]2CC(=O)N21 [clauvulanate] |  |  |  |  |  |  |  | active
C[C@]1(Cn2ccnn2)[C@H](C(=O)O)N2C(=O)C[C@H]2S1(=O)=O [tazobactam] |  |  |  |  |  |  |  | active
